Measured values as given in BindingDB's records for doi:10.7270/Q2VQ314Z (Burnham Center For Chemical Genomics, 2010).

Target: T1, Tyrosine-protein phosphatase non-receptor type 7 (Homo sapiens, UniProt P35236)
T1 sequence (P35236 whole entry): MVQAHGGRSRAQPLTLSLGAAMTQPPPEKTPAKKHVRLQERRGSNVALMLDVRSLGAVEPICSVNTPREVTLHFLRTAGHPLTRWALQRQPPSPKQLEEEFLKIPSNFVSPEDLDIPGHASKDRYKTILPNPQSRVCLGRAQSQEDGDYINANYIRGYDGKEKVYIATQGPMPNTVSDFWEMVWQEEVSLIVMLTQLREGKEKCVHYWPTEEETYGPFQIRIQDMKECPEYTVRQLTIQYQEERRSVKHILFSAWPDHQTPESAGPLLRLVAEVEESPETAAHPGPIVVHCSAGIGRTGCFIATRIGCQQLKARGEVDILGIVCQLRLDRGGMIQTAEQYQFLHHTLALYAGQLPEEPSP
Assay: HePTP phosphatase inhibitors, dose response, biochemical, fluorescence, OMFP substrate, HTS hits, set 2 (AID 435032)

Row | Compound | IC50 [µM]
1 | O=C1C([N+](=O)[O-])=CC(Br)=CC1/C=N/n1cnnc1 (stereo not given) [MLS000714804] | > 79.4
2 | CCOC(=O)NC(=O)C(C=Nc1ccc(C)cc1)C(=O)NC(=O)OCC [ethyl 2-{[(ethoxycarbonyl)amino]carbonyl}-3-(4-toluidino)acryloylcarbamate] | > 79.4

Second part, the compound after the results:

Row | IC50 [µM] | Compound
3 | 7.33 | N=C(NN=Cc1ccc2c(c1)OCO2)Sc1cc(O)n(-c2ccc(C(=O)O)cc2)c1O [4-(3-{[[(2E)-2-(1,3-benzodioxol-5-ylmethylene)hydrazino](imino)methyl]thio}-2,5-dioxopyrrolidin-1-yl)benzoic acid]
4 | > 79.4 | Cc1ccc(NN=C2C(=O)N(CN3CCOCC3)c3ccccc32)cc1 [(3Z)-3-[(4-methylphenyl)hydrazinylidene]-1-(4-morpholinylmethyl)-2-indolone]
5 | 14.9 | COC1=CC=CC(/C=N/NC(=O)c2cc3cc([N+](=O)[O-])ccc3s2)C1=O (stereo not given) [SMR000237814]
